Read-outs that look alike come from different tables or passages of the source.
Legend:
[1] = system: LNCaP cells; assay: Phase 1 protocol to identify androgen agonist properties (LNCaP cell proliferation in CDHS medium); type: cell-based, human; conditions: for CHARACTERISTICS: classification from Phase 1 and Phase 2 protocols; for PHASE 1 CELL COUNT: final cell number per well at the optimal test conc.; for PHASE 1 CELL COUNT / cell yields compared with DHT alone, in words / OPTIMAL TEST CONC. (Phase 1): 10% CDHS; for agonistic / proliferative activity, in words: Phase 1 protocol, CDHS-supplemented media; for RELATIVE PROLIFERATIVE POTENCY: Table II, 5α-DHT = 1.0, 5 × 10^4 cell inoculum grown in CDHS for 8 days; for cell yields compared with DHT alone, in words: 3×10^-8 M
Source text: This protocol measures the potential agonistic properties of the substance under test. All manipulations are to be carried out under sterile conditions using disposable plastic tissue culture multiwell plates with all manipulations preferrably being performed in a tissue culture hood.
1. The cell line of choice is the LNCaP-FGC cell culture, an androgen-sensitive prostate tumor cell line. The LNaP cell line is routinely grown in 5% fetal bovine serum--supplemented Dulbecco's modified Eagle minimal essential medium (hereinafter "5% FBS/DME"), at 37° C. in a 95% air--5% CO2 atmosphere.
2. The cultured cells growing in 5% FBS/DME are harvested by treatment with trypsin (1:250)--EDTA (0.2%). The cells are detached by brief exposure to trypsin for about two minutes. To avoid excessive proteolysis, the reaction is quenched by addition of equal volumes of 5% FBS/DME. The resulting cell suspension is collected into a sterile centrifuge tube and resuspended by pipetting gently. The aliquots of this cell suspension thus obtained are dispersed by means of a Skatron dispenser into individual wells containing the seedling medium (1 ml of 5% FBS/DME per well) of a multiwell plate. Each final prepared suspension preferably contains 50,000 cells in a volume of 1.0 ml. It is desirable that the number of cells be counted and verified by means of a Coulter Counter (Coulter Electronics, Hialeah, FL).
The number of wells in each plate will correspond to the number of concentrations per test substances to be evaluated and thus is merely a question of choice or convenience to the user. Into each well, 25 microliter (hereinafter "ul") aliquots of the prepared cell suspension are added using a 1.0 ml syringe fitted with a 19 gauge needle attached to a repetitive Dunn pipetter (Skatron Dispenser). The microtiter plate is then gently shaken to avoid unequal cell distribution within each individual well. The seeded cells are then allowed to attach to the plastic surface of the well proper over a period of 24-72 hours' duration after which the fluid is changed to the experimental maintaining medium.
3 At the time of test, all the seeded cells in each well of the multiwell plate receive 10% heat inactivated--charcoal-dextran human stripped serum (CDHS) in DME at a volume of 0.9 ml per well. Although higher concentrations of CDHS may be utilized up to and including 40% concentrations, the 10% concentration is most preferred.
5. To the other prepared (seeded) wells, 100 ul of the test substance to be evaluated is added as a 10X stock solution to achieve final concentrations ranging from 10^-5 M to at least 10^-12 M. The substance under test is preferably prepared as a stock solution in ethanol, most preferrably as a 10^-3 M solution. All dilutions from the stock preparation are made using DME. The ethanol concentration in the culture medium should be kept below […] by volume. This preparative technique and precaution avoids the need to filter the various volumes of test substance to achieve sterility. This is particularly valuable because steroidal compositions are known to become adsorbed to the commercially obtained filter membranes used for sterilization. The addition of the test substance in appropriate concentrations to the cultured cells and the maintaining medium forms a series of individual reaction mixtures, each of which is varied only by the concentration of the test substance present in the well.
6. After the series of individual reaction mixtures are formed, all of the cultured cells under test in each well of the microtiter plate are incubated at 37° C. preferably in an atmosphere of 5% CO2 /95% air under saturating humidity. During this incubation time, it is desired and preferred that the cultured cells employed in the test be maintained in an atmosphere most advantageous for survival and growth of that cell line. The incubation period preferably is in the range of from 5 to 7 days' duration.

[2] = system: 3H-E2 binding in LNCaP cells; assay: Competition with 3H-E2 binding in LNCaP cells; parameters: species or system human
Experimental: (§1) Steroid receptors measurement: The presence of intracellular sex steroid binding proteins was investigated in whole cell extracts as well as in intact cells. Cytosolic and nuclear extracts were obtained after centrifugation (105,000 g, 45 min.) of a sonicated cellular suspension in TKE buffer (10 mM Tris, 500 mM KCl, 0.5 mM EDTA, pH 7.4). Aliquots of this extract were incubated for 18 hours at 4° C. with increasing concentrations (2×10^- M to 2×10^-8 M) of labelled steroids, with and without a 200-fold excess of the corresponding unlabelled steroid. Bound and free fractions were separated by dextran-coated charcoal adsorption. Intact cells grown in monolayer culture were assayed for specific steroid binding [Olea-Serrano et al., Eur. J. Cancer Clin. Oncol. 21:965-973 (1983)]. Briefly, the cells were incubated in 12-well plates during 50 minutes at 37° C. in DME containing the labelled steroid with and without excess of cold competitor. The range of concentrations used was the same as that in the cytosolic-nuclear extract assay. […] The intracellular radioactivity was extracted with ethanol after ice-cold PBS washing. In both types of experiments, Scatchard analysis of the saturation data was used to quantify the maximal binding capacity (Bmax) and the affinity parameters (dissociation constant, Kd) using the SCAFIT program [Munson et al., Anal. Biochem. 107:220-239 (1980)].

[3] = target: T1, androgen receptor (Homo sapiens, UniProt P10275, T878A); assay: Competition for androgen receptors with 3H-testosterone in LNCaP cytosol-nuclear extracts (RBA); type: binding; conditions: for RBA (relative binding affinity to the androgen receptor): Table II, 5α-DHT = 100, 6×10^-9 M 3H-testosterone
T1 construct: the presence of specific androgen receptors in LNCaP cells; endogenous in cells; extract or intact cells for the saturation analysis
T1 sequence (P10275 whole entry T878A): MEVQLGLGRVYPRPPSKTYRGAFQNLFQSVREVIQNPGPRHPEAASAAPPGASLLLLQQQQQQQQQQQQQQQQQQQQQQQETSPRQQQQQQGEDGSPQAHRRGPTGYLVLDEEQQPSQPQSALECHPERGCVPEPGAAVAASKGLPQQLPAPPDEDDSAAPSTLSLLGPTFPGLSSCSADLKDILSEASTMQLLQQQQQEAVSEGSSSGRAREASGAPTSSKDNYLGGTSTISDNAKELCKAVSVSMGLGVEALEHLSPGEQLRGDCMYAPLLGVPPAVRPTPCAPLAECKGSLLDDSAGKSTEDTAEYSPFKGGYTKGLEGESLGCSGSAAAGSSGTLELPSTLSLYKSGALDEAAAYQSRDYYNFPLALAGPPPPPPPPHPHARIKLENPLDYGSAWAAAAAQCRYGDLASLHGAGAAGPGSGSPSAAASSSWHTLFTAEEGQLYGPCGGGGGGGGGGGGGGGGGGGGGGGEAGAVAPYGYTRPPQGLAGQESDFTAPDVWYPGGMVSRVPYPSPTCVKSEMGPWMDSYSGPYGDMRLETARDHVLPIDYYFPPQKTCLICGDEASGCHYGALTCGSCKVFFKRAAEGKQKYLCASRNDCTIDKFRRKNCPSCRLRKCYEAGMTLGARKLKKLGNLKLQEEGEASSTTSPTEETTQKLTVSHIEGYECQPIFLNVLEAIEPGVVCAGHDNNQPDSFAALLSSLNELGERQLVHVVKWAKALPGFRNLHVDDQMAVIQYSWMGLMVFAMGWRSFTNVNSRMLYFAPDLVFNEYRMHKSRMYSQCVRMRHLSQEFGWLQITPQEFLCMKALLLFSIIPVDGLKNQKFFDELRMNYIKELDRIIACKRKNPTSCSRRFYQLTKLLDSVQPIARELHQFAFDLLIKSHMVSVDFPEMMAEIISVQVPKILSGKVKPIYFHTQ
Experimental: as §1
Cytosol-nuclear extracts were used to study competition for androgen receptors. […] The relative binding affinity (RBA) was calculated from the equation: […]

[4] = system: LNCaP cells; assay: Phase 2 protocol for androgen antagonistic properties (LNCaP proliferation with 3×10^-10 M 5α-DHT plus test substance); conditions: for antagonistic activity, in words: Phase 2 protocol
[5] = with 3×10^-10 M 5α-DHT, 10% CDHS

Compound | CHARACTERISTICS [1] | PHASE 1 CELL COUNT [1] | antagonistic activity, in words [4] | further results
C[C@]12CC[C@@H](O)C[C@@H]1CC[C@@H]1[C@@H]2CC[C@]2(C)[C@@H](O)CC[C@@H]12 [3α-diol, 5α-androstene, 3α,17β-diol] | full agonist | 2.5 × 10^5 |  | 
C[C@]12CCC(=O)C[C@@H]1CC[C@@H]1[C@@H]2CC[C@]2(C)[C@@H](O)CC[C@@H]12 [5α-DHT, 5α-dihydrotestosterone] | full agonist | 2.5 × 10^5 |  | 
C[C@]12CCC(=O)C[C@H]1CC[C@@H]1[C@@H]2CC[C@]2(C)[C@@H](O)CC[C@@H]12 [5β-DHT, 5β-dihydrotestosterone] | full agonist | 2.5 × 10^5 |  | 
CC/C(=C(/CC)c1ccc(O)cc1)c1ccc(O)cc1 [DES, diethylstilbestrol] | full antagonist | 5 × 10^4 |  | competition with 3H-E2 binding, in words [2]: did not compete; agonistic / proliferative activity, in words [1]: no agonistic activity at all
C[C@]12CC[C@@H]3c4ccc(O)cc4CC[C@H]3[C@@H]1CCC2=O [Estrone, estrone] |  |  |  | RBA (relative binding affinity to the androgen receptor) [3]: 0.1
C[C@]12C[C@H](CCl)[C@@H]3c4ccc(O)cc4CC[C@H]3[C@@H]1CC[C@@H]2O [Org 4333, 11β-chloromethyl estradiol] | full agonists | 4.0 × 10^5 | no antagonistic activity | RBA (relative binding affinity to the androgen receptor) [3]: 1.2; RELATIVE PROLIFERATIVE POTENCY [1]: 0.01
C[C@]1(O)CC[C@H]2[C@@H]3CCC4=CC(=O)CCC4=C3C=C[C@@]21C [R1881, 17β-hydroxy-17α-methyl-estra-4,9,11-trien-3-one] | full agonists | 2.5 × 10^5 | no antagonistic activity | 
CCC(=O)C1(C)CCC2C3CCC4=CC(=O)CCC4=C3CCC21C (stereo not drawn) [R5020, 17βmethyl-,21-methyl-19-nor-pregna-4,9-diene-3,10-dione] | full agonists | 4.0 × 10^5 | no antagonistic activity | RBA (relative binding affinity to the androgen receptor) [3]: 11; agonistic / proliferative activity, in words [1]: effective and potent androgen agonists; RELATIVE PROLIFERATIVE POTENCY [1]: 0.01
CC1(C)NC(=O)N(c2ccc([N+](=O)[O-])c(C(F)(F)F)c2)C1=O [anandron, 5,5-dimethyl-3-(4-nitro-3-(trifluoromethyl)-phenyl)-2,4-imidasolidinedione] | full agonist | 4.0 × 10^5 |  | cell yields compared with DHT alone, in words [1]: increased cell yields at values consistently above those obtained with DHT alone
CC(=O)O[C@]1(C(C)=O)CC[C@H]2[C@@H]3C=C(Cl)C4=CC(=O)[C@@H]5C[C@@H]5[C@]4(C)[C@H]3CC[C@@]21C [cyproterone acetate] | full agonist | 4.1 × 10^5 |  | cell yields compared with DHT alone, in words [1]: increased cell yields at values consistently above those obtained with DHT alone
CC(C)C(=O)Nc1ccc([N+](=O)[O-])c(C(F)(F)F)c1 [flutamide] | quiescent | 5 × 10^4 |  | agonistic / proliferative activity, in words [1]: devoid of activity
C[C@]12CCC(=O)C=C1CC[C@@H]1[C@@H]2[C@@H](O)C[C@@]2(C)[C@H]1CC[C@]2(O)C(=O)CO [hydrocortisone] | quiescent | 5 × 10^4 |  | 
CC(C)(O)C(=O)Nc1ccc([N+](=O)[O-])c(C(F)(F)F)c1 [hydroxyflutamide] | full agonist | 3.9 × 10^5 | absence of antagonistic effects | RBA (relative binding affinity to the androgen receptor extracted from LNCaP) ([3]; Table III, Testosterone = 1): 0.004; cell yields compared with DHT alone, in words [1]: increased cell yields at values consistently above those obtained with DHT alone; RPP (relative proliferation potency) ([1]; Table III, Testosterone = 1, 10^5 cell inoculum grown in CDHS for 7 days): 0.01
CC(=O)O[C@]1(C(C)=O)CC[C@H]2[C@@H]3C[C@H](C)C4=CC(=O)CC[C@]4(C)[C@H]3CC[C@@]21C [medroxy progesterone, medroxyprogesterone acetate] | full agonist | 4.0 × 10^5 | absence of antagonistic effects | OPTIMAL TEST CONC. (Phase II) [4]: 3 µM; PHASE II CELL COUNT [4]: 4.0 × 10^5
C[C@@H]1CC2=CC(=O)CC[C@@H]2[C@H]2CC[C@@]3(C)[C@@H](CC[C@]3(C)O)[C@@H]21 [mibolerone, 7α,17α-dimethyl-19-nortestosterone] | full agonist | 2.5 × 10^5 |  | 
CC(=O)[C@H]1CC[C@H]2[C@@H]3CC=C4C[C@@H](O)CC[C@]4(C)[C@H]3CC[C@]12C [pregnenolone] | full agonist | 3.9 × 10^5 |  | proliferative potency ([1]; compared with 5α-DHT values): 1%
CC(=O)[C@H]1CC[C@H]2[C@@H]3CCC4=CC(=O)CC[C@]4(C)[C@H]3CC[C@]12C [progesterone] | full agonists | 4 × 10^5 | no antagonistic activity | agonistic / proliferative activity, in words [1]: effective and potent androgen agonists
C[C@]12CC[C@H]3[C@@H](CCC4=CC(=O)CC[C@@]43C)[C@@H]1CC[C@@H]2O [testosterone] | full agonist | 2.6 × 10^5 |  | agonistic / proliferative activity, in words [1]: proliferative pattern similar to that obtained with 5α-DHT
epidermal growth factor: Epidermal Growth Factor (Collaborative Research; Creative Biomolecules) (NSDSECPLSHDGYCLHDGVCMYIEALDKYACNCVVGYIGERCQYRDLKWWELR; Epidermal growth factor; UniProt P01133 971-1023, looked up) | quiescent |  |  | OPTIMAL TEST CONC. (Phase II) [4, 5]: 100 ng/mL; OPTIMAL TEST CONC. (Phase 1) [1]: 100 ng/mL
insulin: Insulin (Eli Lilly Company) | quiescent | 5 × 10^4 |  | OPTIMAL TEST CONC. (Phase II) [4, 5]: 100 ng/mL; OPTIMAL TEST CONC. (Phase 1) [1]: 100 ng/mL

From patent US5135849A, “In-vitro methods for identifying compositions which are agonists and antagonists of androgens” (priority 1989, dated 1992)
